# Source: PMC10970486 (Bioconjugate chemistry, 2024)
# Biological target: MelBSt (melibiose permease) (Salmonella enterica, UniProt P30878)
# Experiment: displacement of D2G, Trp to dansyl FRET
# Type: binding
# Details: excess melibiose added after D2G; extract in DDM, TMG-A13 or TMG-P10,8
# Sequence of MelBSt (melibiose permease) (P30878 whole entry): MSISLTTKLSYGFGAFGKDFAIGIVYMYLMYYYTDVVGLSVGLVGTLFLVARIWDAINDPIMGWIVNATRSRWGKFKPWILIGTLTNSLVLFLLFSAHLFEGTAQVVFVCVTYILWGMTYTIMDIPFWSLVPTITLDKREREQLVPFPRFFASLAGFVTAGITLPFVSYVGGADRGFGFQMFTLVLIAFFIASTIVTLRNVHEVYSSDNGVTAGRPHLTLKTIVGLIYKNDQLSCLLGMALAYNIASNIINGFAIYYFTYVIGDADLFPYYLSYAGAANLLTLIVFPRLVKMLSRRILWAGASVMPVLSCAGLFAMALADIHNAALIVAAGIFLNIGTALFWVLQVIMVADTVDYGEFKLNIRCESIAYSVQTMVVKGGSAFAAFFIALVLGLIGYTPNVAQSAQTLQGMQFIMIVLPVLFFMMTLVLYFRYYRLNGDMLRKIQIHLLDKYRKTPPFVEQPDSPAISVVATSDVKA
smiles,measurement,value
OC[C@H]1O[C@H](OC[C@H]2OC(O)[C@H](O)[C@@H](O)[C@@H]2O)[C@H](O)[C@@H](O)[C@H]1O (stereo partly shown) [melibiose],"displacement of D2G, Trp to dansyl FRET",excess melibiose replaces the dansyl ligand with the non-fluorescent substrate in the active site
